In brackets after ≈: the same amount, converted by molar mass. Entries after “also recorded” stand apart in the source; their conditions may differ.
Columns and labels:
[1] = tested on: A. actinomycetemcomitans biofilms; assay: Activity against A. actinomycetemcomitans biofilms (XTT metabolic assay, crystal violet, plating); format: cell-based, Aggregatibacter actinomycetemcomitans
Protocol: Aggregatibacter actinomycetemcomitans 1005 (Aa) (obtained from Dr. Helen Schreiner, New Jersey Dental School) were cultured on TSB agar (4% trypticase soy broth, 0.6% yeast extract, 0.8% dextrose, 0.4% NaHCO3, 75 μg/mL bactracin, 5 μg/mL vancomycin) at 37° C., 10% CO2. Single colonies were inoculated to TSB broth in 75-cm^2 tissue culture flasks. Biofilm was harvest upon the 90% confluence and resuspended into 1 mL PBS. Resuspension was vortexed vigorously for 1 minute and allowed to settle for 10 minutes. The supernatant was then diluted to 2.5×10^7 before seeded to 96-well plates to obtain even biofilms. Porphyromonas gingivalis W381 (obtained from Dr. Christopher Cutler, Stony Brook University Dental School) were cultured on TSB-blood agar (3% trypticase soy broth, 5% defibrinated sheep blood, 5 hemin, 0.5 μg/mL menadione, and 0.2 mg/mL KNO3) in an anaerobic chamber (80% N2, 10% H2, and 10% CO2) at 37° C. For biofilm formation, the same protocol as Aa under anaerobic condition was used.
Aa biofilms were cultured into 96-well plates (tissue culture treated, Falcon) for 18 hours. Serial dilutions of the mimetic compounds were made in 100 μL RPMI-1640 without Phenol red and added directly to the wells. Plates were cultured at 37° C., 10% CO2 for 24 hours. Medium was removed, and cell viability was evaluated by XTT assay using the In Vitro Toxicology Assay Kit (Sigma) according to the manufacturer's protocol. Metabolic activity was measured by reading in a plate-reader at 450 nm. […] Colonies were counted after 72 hours. […]
To quantify the activity of AMP mimetics on biofilms, the activity against two bacterial species associated with periodontitis, A. actinomycetemcomitans and P. gingivalis was measured under conditions that lead to biofilm formation (Kaplan et al., J. Bacteriol. 2003, 185, 1399-1404; Davey, Periodontol 2000, 2006, 42, 27-35). […] After 24 hours, the growth medium was replaced with RPMI (without Phenol Red) and an XTT assay was carried out to quantify the metabolic activity. Metabolic activity was quantified by measuring the OD at 450 nm and 600 nm. […]

[2] = tested on: P. gingivalis biofilms; assay: Activity against P. gingivalis biofilms (XTT metabolic assay, crystal violet); format: cell-based, Porphyromonas gingivalis
Protocol: Aggregatibacter actinomycetemcomitans 1005 (Aa) (obtained from Dr. Helen Schreiner, New Jersey Dental School) were cultured on TSB agar (4% trypticase soy broth, 0.6% yeast extract, 0.8% dextrose, 0.4% NaHCO3, 75 μg/mL bactracin, 5 μg/mL vancomycin) at 37° C., 10% CO2. Single colonies were inoculated to TSB broth in 75-cm^2 tissue culture flasks. Biofilm was harvest upon the 90% confluence and resuspended into 1 mL PBS. Resuspension was vortexed vigorously for 1 minute and allowed to settle for 10 minutes. The supernatant was then diluted to 2.5×10^7 before seeded to 96-well plates to obtain even biofilms. […]
To test the activity against P. gingivalis biofilms, strain 381 was grown in 96-well plates under conditions (i.e., grown in a 96-well plate for 21 days in an anaerobic chamber in Brain Heart Infusion (BHI) medium) that favor biofilm formation (Davey, Periodontol 2000, 2006, 42, 27-35). mPE was added in serial dilutions, incubated anaerobically for 24 hours, and the medium was replaced with XTT in RPMI. Metabolic activity was quantified as above. To confirm the ability of XTT to measure activity in the biofilm, the growth medium was removed, and biomass was quantified by crystal violet staining, followed by destaining and quantification of the optical density. Staining was quantified by reading A600. […]

[3] = tested on: IL-8 secretion, OKF6/TERT cell line; assay: IL-1β-induced IL-8 secretion (ELISA) in gingival epithelial cells; format: cell-based, Human
Protocol: (§1) The oral keratinocyte cell line OKF6/TERT (obtained from Dr. James Rhinewald, Harvard University) was cultured in Keratinocyte growth medium (Lonza) with hEGF, BPE (Bovine Pituitary Extract). Cells were subcultured in 6-well dishes 18 hours before stimulation. Cells were treated with 2 μg/mL, 5 μg/mL mPE with and without IL-1β stimulation (100 ng/mL, […]) for 2 hours, 4 hours and 18 hours. THP-1 cells were grown in suspension at RPMI 1640 with 10% FBS, and stimulated similarly.
(§2) Growth medium from stimulated cultures was collected either by aspiration (from keratinocytes) or after centrifugation at 1000 rpm for 15 minutes (for THP-1 cells). Cell debris was removed by centrifugation at 8,000 g (12,000 rpm) for 10 minutes at 4° C. To quantify IL-8 levels, the Human IL-8 Single Analyte ELISArray Kit (SA bioscience, MD) was used according to the manufacturer's protocol. The Cellular Activation of Signaling ELISA kit IKBα (SA bioscience, MD) was used to quantify both phosphorylated and whole IkBα levels in OKF6/TERT cells grown in a 96-well plate. All assays were performed in duplicate.
(§3) To examine the effect of mPE on the inflammatory response, gingival epithelial cells (the OKF6/TERT cell line) and the monocytic cell line, THP-1, were treated with rhIL-1β (100 ng/ml) in the presence of increasing concentrations (0, 2, or 5 ng/ml) of mPE. Secreted levels of IL-8 were measured by ELISA. […]

[4] = tested on: IL-8 secretion, THP-1 cells; assay: IL-1β-induced IL-8 secretion (ELISA) in THP-1 cells; format: cell-based, Human
Protocol: as §1, §2, §3

[5] = tested on: OKF6/TERT and THP-1 cells; assay: Cell viability by XTT assay and trypan blue exclusion; format: cell-based, Human; conditions: highest concentration of mPE
Protocol: To examine the effect of mPE on the inflammatory response, gingival epithelial cells (the OKF6/TERT cell line) and the monocytic cell line, THP-1, were treated with rhIL-1β (100 ng/ml) in the presence of increasing concentrations (0, 2, or 5 ng/ml) of mPE. Secreted levels of IL-8 were measured by ELISA. […] The experiment was carried out in quadruplicate; error bars represent±SD. The inhibition by mPE was significant at both concentrations with p<0.01. […] This was not a result of cytotoxicity, as cell viability (as measured by XTT assay and trypan blue exclusion) was no lower than 93-96% at the highest concentration of mPE. To determine whether this was due to an effect on IL-8 secretion or on gene regulation, mRNA was isolated from treated cells IL-8 mRNA levels were quantified by QPCR.

[6] = tested on: IL-8 mRNA; assay: IL-8 mRNA levels by QPCR in OKF6/TERT cells; format: cell-based, Human; conditions: IL-1β-treated cells, normalized to β2-Microglobulin, FIG. 4A
Protocol: Total cellular RNA was isolated from cultures using QIAshredder and RNeasy Mini Kit (Qiagen Valencia, Calif.). Total RNA was reversed transcribed using Superscript II reverse transcriptase kit as described by the manufacturer (Invitrogen, CA). Quantitative PCR (qPCR) was carried out using SYBR Green in a MyiQ iCycler (Bio-Rad). A total of 1 μl of cDNA (described above) was analyzed using final concentration of 100 nM of primers, 2×SYBR Green PCR Master Mix (Applied Biosystems, Foster City, Calif., USA) in volume of 20 μl. Prmer sequences were:
Amplification was carried out for 50 cycles (95° C., 15 seconds; 60° C., 60 seconds). The relative for mRNA expression in each sample was calculated based on its Ct value comparison to Ct of a housekeeping gene. […]
To examine the effect of mPE on the inflammatory response, gingival epithelial cells (the OKF6/TERT cell line) and the monocytic cell line, THP-1, were treated with rhIL-1β (100 ng/ml) in the presence of increasing concentrations (0, 2, or 5 ng/ml) of mPE. Secreted levels of IL-8 were measured by ELISA. […] This was not a result of cytotoxicity, as cell viability (as measured by XTT assay and trypan blue exclusion) was no lower than 93-96% at the highest concentration of mPE. To determine whether this was due to an effect on IL-8 secretion or on gene regulation, mRNA was isolated from treated cells IL-8 mRNA levels were quantified by QPCR. […]

[7] = tested on: phosphorylated IκB / NF-κB activation; assay: IκB phosphorylation (CASE ELISA) in OKF6/TERT cells; format: cell-based, Human; conditions: 100 ng/ml IL-1β, 2 or 4 hours, 0, 2 or 5 μg/ml mPE, FIG. 4B
Protocol: Growth medium from stimulated cultures was collected either by aspiration (from keratinocytes) or after centrifugation at 1000 rpm for 15 minutes (for THP-1 cells). Cell debris was removed by centrifugation at 8,000 g (12,000 rpm) for 10 minutes at 4° C. To quantify IL-8 levels, the Human IL-8 Single Analyte ELISArray Kit (SA bioscience, MD) was used according to the manufacturer's protocol. The Cellular Activation of Signaling ELISA kit IKBα (SA bioscience, MD) was used to quantify both phosphorylated and whole IkBα levels in OKF6/TERT cells grown in a 96-well plate. All assays were performed in duplicate. OKF6/TERT cells were treated with mPE as above in the presence or absence of IL-1β. Total mRNA was isolated and IL-8 and hBD-2 mRNA levels were quantified by QPCR normalized to β2-Microglobulin. Levels are shown relative to the no-mPE sample for each group. The experiment was carried out in triplicate; error bars represent±SD. […] To determine whether this was due to an inhibition of NF-κB activation, gingival epithelial cells were treated with mPE in the presence or absence of 100 ng/ml IL-1β, and IκB phosphorylation levels were quantified using the CASE assay (SA Biosciences, MD), and quantified relative to total IκB levels). In particular, OKF6/TERT cells were grown in 96-well plates, treated with 100 ng/ml IL-1β for 2 or 4 hours in the presence of 0, 2 or 5 μg/ml mPE. […]

[8] = tested on: A. actinomycetemcomitans; conditions: planktonic form; cited from earlier work
[9] = tested on: P. gingivalis; conditions: planktonic form; cited from earlier work
[10] = tested on: LPS-mediated TNF-α production, macrophage cell line; conditions: macrophage cells; cited from earlier work
[11] = tested on: oral pathogens, biofilm cultures of Streptococcus mutans; conditions: Gram-positive and -negative, incl. S. mutans biofilm cultures; cited from earlier work
[12] = rhIL-1β 100 ng/ml, mPE 0, 2, or 5 ng/ml as printed, FIG. 3

Structure (SMILES): NCCc1cc(Br)cc(C#Cc2cccc(C#Cc3cc(Br)cc(CCN)c3)c2)c1 [mPE]
- reduction of metabolic activity (XTT) ([1]; 2-hour exposure, 16 ng/ml, FIG. 1C): 60%
- antimicrobial activity against biofilms (XTT metabolic activity) ([1]; 24 hours, FIG. 1A): potent antimicrobial activity
- reduction in viable colonies (plating) and biomass (crystal violet) ([1]; FIG. 1B): reduction in viable colonies paralleled the results from the XTT assay
- activity against biofilm cultures [2]: potent activity
- concentration at which biofilm and metabolic activity decrease to a baseline ([2]; 24 hours anaerobic, XTT and crystal violet, FIG. 2): 4 to 8 µg/mL
- concentration sufficient to inhibit IL-1β-induced secretion of IL-8 ([3]; gingival epithelial cells): 2 µg/mL
- inhibition of IL-8 secretion [3, 12]: dose-dependent inhibition
- concentration sufficient to inhibit IL-1β-induced secretion of IL-8 ([4]; THP-1 cells): 2 µg/mL
- inhibition of IL-8 secretion [4, 12]: dose-dependent inhibition
- cell viability [5]: 93-96%
- IL-8 mRNA levels [6]: inhibitory effect is at the level of gene expression
- IL-1β-stimulated phosphorylated IκB levels / total IκB [7]: reduction in activation of NF-κB; also recorded: rapid, dose-dependent reduction
- MIC [8]: 0.4 µg/mL (≈ 0.766 µM)
- MIC [9]: 2.5 µg/mL (≈ 4.79 µM)
- LPS-mediated TNF-α production [10]: inhibited
- activity against oral pathogens [11]: active
